Laboratory results published in PubChem BioAssay AID651549 (Sanford-Burnham Center for Chemical Genomics, 2012).
Activity calls are given as the source filed them.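 How the source made its calls: active means compounds blocking the PEG3 reporter with IC50 up to 10 µM at either incubation, yet sparing the GAPDH control reporter; inactive means the rest.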

Assay: GAPDH and PEG-3 promoter luciferase suppression – cell-based, luminescence, set 2, counter-screen for PEG-3 promoter inhibitor project, dose response (AID 651549)
Details: HeLa PEG-Prom-luciferase or GAPDH-reporter, 6/24 h

| Compound | IC50 (GAPDH, run 1, 6 h) | IC50 (GAPDH, run 1, 24 h) | IC50 (PEG-3, run 1, 6 h) | IC50 (PEG-3, run 1, 24 h) |
| --- | --- | --- | --- | --- |
| CC(=O)c1cccc(-c2ccnc3c2CC(C(=O)Nc2cccc(NS(C)(=O)=O)c2)O3)c1 (stereo not drawn) | inactive | 8.62 µM | > 99 µM (inactive) | inactive |
| CCCCCCCn1c(=N)n(CC(=O)c2ccco2)c2ccccc21 | inactive | inactive | inactive | inactive |
| COc1ccc(Nc2ncnc3ccc(Br)cc23)c(OC)c1 | 1.16 µM | 1.68 µM | 1.05 µM | 0.798 µM |
| O=C(O)c1ccc2nc(-c3ccccc3)sc2c1 | 6.04 µM | 0.72 µM | 7.05 µM | 7.03 µM |
| Cc1cccc(-n2cc(-c3ccccc3)c3c(N4CCOCC4)ncnc32)c1 | > 99 µM (inactive) | inactive | > 99 µM (inactive) | inactive |
| CC(=O)OC1(C)CC(C)C(=O)C(C(O)CC2CC(=O)NC(=O)C2)C1 (stereo not drawn) | < 1 µM | < 1 µM | < 1 µM | 0.353 µM |
| CN1CCC2(CC1)N=C(c1ccc(F)cc1)C(=S)N2C(=O)c1ccc(C(C)(C)C)cc1 | inactive | inactive | inactive | inactive |
| COC(=O)c1ccc2nc(Nc3nc4ccc(F)cc4s3)sc2c1 | < 1 µM | 0.533 µM | < 1 µM | 2.74 µM |
| CCc1ccn2cc(-c3ccc4c(c3)OCO4)nc2c1 | 2.23 µM | inactive | 2.12 µM | 5.02 µM |
| CC(=O)OC1CC[C@]2(C#N)[C@H]3CC[C@]4(C)[C@H](C5C=CC(=O)O5)CCC4(O)C3CCC2(O)C1 (stereo partly drawn) | 6.51 µM | inactive | 1.6 µM | inactive |
| CCC1(O)C(=O)OCc2c1cc1n(c2=O)Cc2cc3cc(O)ccc3nc2-1 (stereo not drawn) | 3.1 µM | 4.36 µM | 3.1 µM | 9.31 µM |
| Cc1oc(-c2ccc3c(c2)OCCO3)cc1C(=O)O | 4.9 µM | 7.36 µM | 7.66 µM | inactive |
| NS(=O)(=O)c1ccc(CCNc2nn3c(-c4ccc(F)c(Cl)c4)cnc3s2)cc1 | inactive | 2.38 µM | inactive | 2.99 µM |
| CCSc1nc2ccccc2n1C(=O)/C=C\c1ccc(OC)c(OC)c1 | 6.8 µM | 5.39 µM | 6.76 µM | 6.91 µM |
| O=C(COc1ccc2c(c1)CCC2)Nc1ccccn1 | 2.7 µM | 1.82 µM | 2.41 µM | 5.02 µM |
| Nc1ncn([C@@H]2O[C@H](CO)[C@@H](O)[C@H]2O)c(=O)n1 | 2.73 µM | 0.557 µM | inactive | inactive |
| COC(=O)C1=C(CN2CCCc3ccccc32)NC(=O)NC1c1ccc(F)cc1 (stereo not drawn) | 1.39 µM | 0.789 µM | 0.625 µM | 0.681 µM |
| CCCn1nc(C(=O)Nc2nc(-c3ccccn3)cs2)c2ccccc2c1=O | inactive | inactive | > 99 µM (inactive) | > 99 µM (inactive) |
| Cc1cc(C)cc(NS(=O)(=O)c2ccc3c(c2)c(=O)n(C)c(=O)n3C)c1 | inactive | 1.85 µM | > 99 µM (inactive) | 4.62 µM |
| CS(=O)(=O)Nc1cccc(NC(=O)C2Cc3c(-c4ccccc4)ccnc3O2)c1 (stereo not drawn) | > 99 µM (inactive) | 4.26 µM | > 99 µM (inactive) | 5.57 µM |
| Cc1nc2c(-c3ccc(Cl)cc3)c(C)[nH]n2c(=O)c1Cc1ccccc1 | inactive | 1.74 µM | > 99 µM (inactive) | 2.21 µM |
| COc1ccc(-n2cc(-c3ccccc3)c3c(N4CCOCC4)ncnc32)cc1 | inactive | 2.98 µM | inactive | inactive |
| CC(C)(C)c1ccc(Cn2c(=O)cnc3ccccc32)cc1 | 6 µM | 6.64 µM | 3.47 µM | inactive |
| C=CCn1c(C)cc(C(=O)COc2ccc(C)nc2[N+](=O)[O-])c1C | 8.44 µM | inactive | 9.65 µM | 3.38 µM |
| CCOC(=O)c1ccc2nc(Nc3nc4ccc(F)cc4s3)sc2c1 | > 99 µM (inactive) | > 99 µM (inactive) | 0.31 µM | < 1 µM |
| O=C(NCC1CCCO1)C(c1ccc(F)cc1)N(C(=O)Cn1nnc(-c2ccc(F)cc2)n1)c1cccc(O)c1 (stereo not drawn) | inactive | inactive | > 99 µM (inactive) | inactive |

| Compound | IC50 (GAPDH, run 1, 6 h) | IC50 (GAPDH, run 1, 24 h) | IC50 (PEG-3, run 1, 6 h) | IC50 (PEG-3, run 1, 24 h) |
| --- | --- | --- | --- | --- |
| COc1ccc(C(=O)Nc2ccc(C)cn2)c(OC)c1 | 1.07 µM | 3.41 µM | 3.63 µM | 4.17 µM |
| Cc1cc(C)c(C)c(S(=O)(=O)N2CCN(C(=O)c3cc(=O)[nH]c4ccccc34)CC2)c1C | inactive | 4.79 µM | > 99 µM (inactive) | inactive |
| O=C(Nc1cccc(-c2ccc(N3CCCCC3)nn2)c1)C(F)(F)F | 3.5 µM | inactive | 5.36 µM | 8.67 µM |
| C[C@]12CC[C@H]3C(CCC4(O)CC(O)CC[C@]34C=O)C1=CC[C@H]2c1ccc(=O)oc1 (stereo partly drawn) | 3.59 µM | inactive | 1.52 µM | 7.64 µM |
| O=C(O)CSCC(=O)Nc1ccc(C2CCCCC2)cc1 | 5.37 µM | 0.307 µM | 5.56 µM | 4.57 µM |
| Cc1cc(C)cc(NS(=O)(=O)c2ccc3[nH]cc(C(=O)NCc4ccco4)c(=O)c3c2)c1 | inactive | 2.43 µM | > 99 µM (inactive) | 5.44 µM |
| Cc1c(/C(O)=C2/C(=O)C(=O)N(Cc3cccnc3)C2c2ccccn2)cnn1-c1ccccc1 (stereo not drawn) | 1.01 µM | 1.92 µM | 1.58 µM | 5.27 µM |
| Cc1ccc(S(=O)(=O)NC(CC(C)C)C(=O)NCC(c2ccco2)N2CCCCC2)cc1 (stereo not drawn) | inactive | inactive | inactive | inactive |
| CC(=O)c1sc2c(c1OC(=O)c1ccc(Cl)cc1Cl)c(=O)n(-c1ccccc1)c(=S)n2-c1ccccc1 | 0.853 µM | 0.766 µM | > 99 µM (inactive) | 5.59 µM |
| CN1OC[C@@H]2CN(S(=O)(=O)c3cccc(C(F)(F)F)c3)[C@H](c3ccc(-c4cc5ccccc5o4)cc3)C[C@@H]21 | inactive | 6.66 µM | inactive | inactive |
| CC(=O)OC1CC2(O)C3CCC4CC(O)CCC4(C)C3CCC2(C)C1C1=CC(=O)OC1 (stereo not drawn) | 0.416 µM | 0.458 µM | > 99 µM (inactive) | 0.499 µM |
| COC1CC(C)C(OC)c2cc(O)cc(c2O)NC(=O)C(C)=CC=CC(C)C(OC(N)=O)C(C)=CC(C)C1OC (stereo not drawn) | inactive | inactive | inactive | inactive |
| CCC(c1nnnn1-c1ccc2c(c1)OCCO2)N1CCC(n2c(=O)[nH]c3ccccc32)CC1 (stereo not drawn) | inactive | 4.01 µM | inactive | inactive |
| COc1ccc(CC2C(=O)NC(C)C(=O)N(C)C3C(=O)N(C)C(Cc4ccc(O)c(c4)Oc4ccc(cc4)C3O)C(=O)NC(C)C(=O)NC(C)C(=O)N2C)cc1 (stereo not drawn) | < 1 µM | < 1 µM | < 1 µM | < 1 µM |
| Cc1cccc(NC(=O)c2nc(S(=O)(=O)Cc3ccccc3)ncc2Cl)c1 | 8.24 µM | 7.13 µM | inactive | inactive |
| Cc1ccc(-c2cn3nc(C)c(C)nc3n2)cc1 | inactive | > 99 µM (inactive) | inactive | > 99 µM (inactive) |
| Cc1cc(C(=O)Nc2cccc(C(=O)O)c2)oc1C | 7.74 µM | inactive | inactive | inactive |
| CCOc1ccc(-n2cc(-c3ccccc3)c3c(N4CCOCC4)ncnc32)cc1 | > 99 µM (inactive) | > 99 µM (inactive) | > 99 µM (inactive) | > 99 µM (inactive) |
| O=C(O)c1ccc(Nc2nc3c(s2)CCCC3)cc1 | 8.49 µM | 9.1 µM | inactive | inactive |
| CS(=O)(=O)c1ccc(-c2cn3cc(C(=O)O)ccc3n2)cc1 | inactive | 3.4 µM | inactive | inactive |
| O=C(c1ccco1)N1CCN(C(c2ccccc2Cl)c2nnnn2Cc2cccs2)CC1 (stereo not drawn) | inactive | inactive | > 99 µM (inactive) | inactive |
| COc1ccc2[nH]c(=O)c(CN(Cc3cccnc3)S(=O)(=O)c3ccccc3F)cc2c1 | inactive | 5.38 µM | > 99 µM (inactive) | inactive |
| Cn1c(Cl)cnc1C1CC(=O)c2cc(Cl)ccc2O1 (stereo not drawn) | inactive | 9.11 µM | inactive | inactive |
| CC1CC(C)C(=O)C(C(CC2CC(=O)NC(=O)C2)OC(=O)CC(=O)c2ccccc2)C1 (stereo not drawn) | 1.36 µM | 7.25 µM | 5.46 µM | inactive |
| CC(CCc1ccccc1)NC(=O)COC(=O)c1ccc(S(C)(=O)=O)c([N+](=O)[O-])c1 (stereo not drawn) | inactive | inactive | inactive | 9.86 µM |
| Cc1ccc2nc(NC(=O)CSCC(=O)OCC(=O)c3ccc(Br)cc3)sc2c1 | 3.81 µM | 1.98 µM | > 99 µM (inactive) | 1.96 µM |
